The record followed here is PMC8286840, “Identifying SARS-CoV-2 antiviral compounds by screening for small molecule inhibitors of Nsp3 papain-like protease” (Biochemical Journal, 2021).

Each structure is given as a SMILES string. Structures can show the parent of a compound that is named as a salt. Where two headings read alike, the source gives them in different places.

Assay [1] deals with T1, SARS-CoV-2 PLpro (nsp3 1564–1878) (Severe acute respiratory syndrome coronavirus 2, UniProt P0DTD1). In words: biochemical. Further details: FRET-quenched peptide (Pro3) cleavage by PLpro, 10 min pre-incubation, slope over 20 min, normalised to no-compound control. Conditions: low concentration screen, read-out: % of control remaining.
Assay [2] concerns the target T1, SARS-CoV-2 PLpro (nsp3 1564–1878). In words: biochemical. Set-up: FRET-quenched peptide (Pro3) cleavage by PLpro, 10 min pre-incubation, slope over 20 min, normalised to no-compound control. The following applies: high concentration screen, read-out: % of control remaining.

With `CC(C)Cc1ccc([C@@H](C)C(=O)NS(C)(=O)=O)cc1` [Reparixin (L-lysine salt)], the remaining activity at 1.25 µM stood at 100% in assay [1] (Well no.=8059) and 104% in assay [1] (Well no.=8125). The remaining activity at 3.75 µM in assay [2] (Well no.=8059) stood at 99.6%; in assay [2] (Well no.=8125) it was 104%.

In the case of `CCCN(CCC)S(=O)(=O)c1ccc(C(=O)O)cc1` [Probenecid (Benemid)], the remaining activity at 1.25 µM in assay [1] (Well no.=4972) is 95.9%. The remaining activity at 3.75 µM in assay [2] (Well no.=4972) turned out to be 91.7%.

With `O=c1[nH]c(=O)n([C@H]2C[C@H](O)[C@@H](CO)O2)cc1Br` [5-Bromo-2'-deoxyuridine], the remaining activity at 1.25 µM in assay [1] (Well no.=269) turned out to be 95.6%. Besides, the remaining activity at 3.75 µM in assay [2] (Well no.=269) was determined as 98.4%.

Take `Clc1ccc(CCCOCCCN2CCCCC2)cc1` [Pitolisant (hydrochloride)]: the remaining activity at 1.25 µM in assay [1] (Well no.=6225) came to 100%. Moreover, in assay [2] (Well no.=6225), the remaining activity at 3.75 µM came out at 101%.

In the case of `CCCn1c(=O)c2[nH]c(-c3ccc(OCC(=O)Nc4ccc(C(C)=O)cc4)cc3)nc2n(CCC)c1=O` [MRS-1706], in assay [1] (Well no.=8511), the remaining activity at 1.25 µM came out at 102%. Further, in assay [2] (Well no.=8511), the remaining activity at 3.75 µM is 105%.

Turning to `CC(=O)NCCc1c[nH]c2ccccc12` [N-Acetyltryptamine], the remaining activity at 1.25 µM in assay [1] (Well no.=100) is 97.2%. In addition, the remaining activity at 3.75 µM in assay [2] (Well no.=100) is 96.6%.

Regarding `O=c1ccc2cc(O)c(O)cc2o1` [Esculetin], in assay [1] (Well no.=3988), the remaining activity at 1.25 µM was 101%. Besides, in assay [2] (Well no.=3988), the remaining activity at 3.75 µM stood at 98.6%.

For `c1cnc2c(c1)ccc1cccnc12` [1,10-Phenanthroline monohydrate], the remaining activity at 1.25 µM in assay [1] (Well no.=1259) worked out at 101%. Further, the remaining activity at 3.75 µM in assay [2] (Well no.=1259) worked out at 101%.

With `O=C(O)c1ccc(-c2c[nH]c3ncc(-c4ccccc4)cc23)cc1C1CCCC1` [GSK 650394 - 2-Cyclopentyl-4-(5-phenyl-1H-pyrrolo[2,3-b]pyridin-3-yl-benzoic acid], the remaining activity at 1.25 µM in assay [1] (Well no.=2676) came out at 96.9%. For the same molecule, in assay [2] (Well no.=2676), the remaining activity at 3.75 µM is 99.7%.

For the molecule `O=C(NCCNCC(O)COc1ccc(O)cc1)N1CCOCC1` (centres unmarked) [Xamoterol hemifumarate], the values for the remaining activity at 1.25 µM in assay [1] (Well no.=1436) and in assay [1] (Well no.=1741) were 95.5% and 102%, respectively. For the same molecule, the remaining activity at 3.75 µM in assay [2] (Well no.=1436) was determined as 95.1%; in assay [2] (Well no.=1741), 103%.

With `COc1ccc2cc(OCC3(C(=O)O)CN(C(=O)c4ccc(F)cc4)C3)ccc2c1` [PF-04418948], in assay [1] (Well no.=7197), the remaining activity at 1.25 µM turned out to be 89.6%. Also, the remaining activity at 3.75 µM in assay [2] (Well no.=7197) turned out to be 87.9%.

On to `O=C1CN(/N=C/c2ccc(-c3ccc([N+](=O)[O-])cc3)o2)C(=O)N1` [Dantrolene sodium], for which the remaining activity at 1.25 µM in assay [1] (Well no.=490) came to 103%. Also, the remaining activity at 3.75 µM in assay [2] (Well no.=490) came to 103%.

Consider `O=C(c1cc2cc(O)ccc2[nH]1)c1cc2cc(O)ccc2[nH]1` [Flt-3 Inhibitor II], for which the remaining activity at 1.25 µM in assay [1] (Well no.=2409) amounted to 109%. Besides, the remaining activity at 3.75 µM in assay [2] (Well no.=2409) was 110%.

For `CN(C)CCOc1ccc(/C(=C(/CCCl)c2ccccc2)c2ccccc2)cc1` [Toremifene], the remaining activity at 1.25 µM in assay [1] (Well no.=1966) is 104%. Moreover, the remaining activity at 3.75 µM in assay [2] (Well no.=1966) came to 102%.

For `C=C1CC[C@H]2C(=C)CC[C@H]3C(=C)C(=O)O[C@@H]3[C@@H]12` [Dehydrocostus lactone], in assay [1] (Well no.=3206), the remaining activity at 1.25 µM is 101%. The remaining activity at 3.75 µM in assay [2] (Well no.=3206) turned out to be 100%.

Take `CCOC(=O)C(C)(C)Oc1ccc(Cl)cc1` [Clofibrate]: the values for the remaining activity at 1.25 µM in assay [1] (Well no.=326), in assay [1] (Well no.=1899) and in assay [1] (Well no.=4468) were 94.4%, 94.1% and 93.7%, respectively. The remaining activity at 3.75 µM in assay [2] (Well no.=326) is 94.8%; in assay [2] (Well no.=1899) it was 94%; in assay [2] (Well no.=4468), 99.4%.

With `CCCCCCCCCCCCCC[C@@H](O)[C@@H](O)[C@@H](N)CO` [Phytosphingosine], the remaining activity at 1.25 µM in assay [1] (Well no.=3082) came out at 102%. The remaining activity at 3.75 µM in assay [2] (Well no.=3082) worked out at 103%.

As to `CC(C)N1CCC(N2CCCN(c3cccc(C(=O)Nc4ccncc4)n3)CC2)CC1` [USL311], the remaining activity at 1.25 µM in assay [1] (Well no.=8707) was 99.4%. In addition, the remaining activity at 3.75 µM in assay [2] (Well no.=8707) worked out at 103%.

In the case of `COc1ccc2c(c1)[C@]13CCCC[C@@H]1[C@H](C2)N(C)CC3` [Dextromethorphan hydrobromide monohydrate], in assay [1] (Well no.=447), the remaining activity at 1.25 µM was determined as 100%. In addition, the remaining activity at 3.75 µM in assay [2] (Well no.=447) was 104%.

`CCCCC/C=C\C=C\[C@H](CCCCCCCC(=O)O)OO` [9(S)-HPODE]: in assay [1] (Well no.=4386), the remaining activity at 1.25 µM was 97.7%. Further, in assay [2] (Well no.=4386), the remaining activity at 3.75 µM was 98%.

Turning to `CC[C@H](C)C[C@H](C)CCCCCCCCC(=O)N[C@H]1C[C@@H](O)[C@@H](NCCN)NC(=O)[C@@H]2[C@@H](O)CCN2C(=O)[C@H]([C@H](O)CCN)NC(=O)[C@H]([C@H](O)[C@@H](O)c2ccc(O)cc2)NC(=O)[C@@H]2C[C@@H](O)CN2C(=O)[C@H]([C@@H](C)O)NC1=O` [Caspofungin Acetate], in assay [1] (Well no.=5317), the remaining activity at 1.25 µM is 99.9%. Also, the remaining activity at 3.75 µM in assay [2] (Well no.=5317) came out at 95.7%.

Take `CCCN(CCC)C1CCc2cccc(O)c2C1` (racemic): the remaining activity at 1.25 µM in assay [1] (Well no.=470) was determined as 99.9%. Besides, the remaining activity at 3.75 µM in assay [2] (Well no.=470) is 98.3%.

For the molecule `COc1cc2ncnc(Nc3ccc(OCc4ccccc4)cc3)c2cc1OC` [EGFR/ErbB-2 Inhibitor], the remaining activity at 1.25 µM in assay [1] (Well no.=2373) was 95.9%. Moreover, the remaining activity at 3.75 µM in assay [2] (Well no.=2373) is 97.2%.

Regarding `Cc1ncc([N+](=O)[O-])n1CCO` [Metronidazole], the remaining activity at 1.25 µM in assay [1] (Well no.=1963) is 99.6%. Further, the remaining activity at 3.75 µM in assay [2] (Well no.=1963) was 99.9%.

Regarding `NCC=CC(=O)O` (stereo in doubt) [cis-4-Aminocrotonic acid], the remaining activity at 1.25 µM in assay [1] (Well no.=114) was 97.3%. For the same molecule, the remaining activity at 3.75 µM in assay [2] (Well no.=114) is 98.2%.

On to `Fc1ccc(-c2cncc(CN3CCN(c4cccc5c4OCCO5)CC3)c2)cc1` [Adoprazine], for which the remaining activity at 1.25 µM in assay [1] (Well no.=8443) was determined as 100%. In addition, the remaining activity at 3.75 µM in assay [2] (Well no.=8443) amounted to 98.5%.

`Nc1nc(OCc2ccccc2)c2nc[nH]c2n1` [O6-benzylguanine]: the remaining activity at 1.25 µM in assay [1] (Well no.=123) is 106%. Besides, the remaining activity at 3.75 µM in assay [2] (Well no.=123) was found to be 105%.

On to `CCCc1nc(C)c2c(=O)nc(-c3cc(S(=O)(=O)N4CCN(CC)CC4)ccc3OCC)[nH]n12` [Vardenafil], for which, in assay [1] (Well no.=1780), the remaining activity at 1.25 µM came to 97.7%. Further, the remaining activity at 3.75 µM in assay [2] (Well no.=1780) amounted to 97.8%.

Turning to `CC1(C)CCC[C@](C)([C@H]2CC[C@]3(C)[C@@H]2[C@H](O)C[C@@H]2[C@@]4(C)CC[C@H](O)C(C)(C)[C@@H]4[C@@H](O)C[C@]23C)O1` [Panaxatriol], in assay [1] (Well no.=3699), the remaining activity at 1.25 µM was found to be 94.8%. Also, in assay [2] (Well no.=3699), the remaining activity at 3.75 µM amounted to 101%.

For the molecule `CNCCC(Oc1ccc(C(F)(F)F)cc1)c1ccccc1` (centres unmarked) [Fluoxetine hydrochloride], the remaining activity at 1.25 µM in assay [1] (Well no.=761) amounted to 95.3%. Moreover, in assay [2] (Well no.=761), the remaining activity at 3.75 µM turned out to be 93.4%.
